US12421212B2, “Substituted benzenecarboxamides as IL-17A modulators” (DiCE Alpha, Inc., priority 2019, dated 2025)

Molecular target: T1, IL-17A/A (Homo sapiens, UniProt Q16552)
T1 construct: purchased Genscript Z03228
T1 sequence (Q16552 24-155): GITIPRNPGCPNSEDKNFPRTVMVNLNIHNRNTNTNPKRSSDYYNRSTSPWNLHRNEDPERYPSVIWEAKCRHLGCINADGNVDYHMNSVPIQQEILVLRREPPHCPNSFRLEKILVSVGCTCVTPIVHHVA
Test: IL-17A/A HEK-Blue Cell Assay
Assay type: cell-based
Details: HEK-Blue IL-17A reporter cell line, SEAP readout at A630, 20 hours incubation with IL-17A/A, top concentration 10 uM, 1 uM or 0.3 uM; for IC50: read-out: IL-17A/A inhibition (pIC50) (converted)

Row | Compound | IL-17A/A inhibition (pIC50) | IC50
1 | CCn1nccc1C(=O)N[C@H](C(=O)Nc1ccc([C@H](C)[C@@H](NC(=O)c2ccc(CN(C)C)o2)C(=O)N2CCN(C)CC2)cc1F)C1CCCCC1 [Compound 745] | X2b (compounds were evaluated up to 1 uM and inhibited activity at 1 uM by less than 20%) | –
2 | CCC(=O)N[C@H](Cc1ccc(NC(=O)[C@@H](NC(=O)c2ccnn2CC)C2CCCCC2)c(F)c1)C(=O)N1CCNCC1 [Compound 746] | X2b (compounds were evaluated up to 1 uM and inhibited activity at 1 uM by less than 20%) | –
3 | CCC(=O)N[C@@H](C(=O)N1CCN(C)CC1)[C@@H](C)c1ccc(NC(=O)[C@@H](NC(=O)c2ccnn2CC)C2CCOCC2)c(F)c1 [Compound 747] | X2b (compounds were evaluated up to 1 uM and inhibited activity at 1 uM by less than 20%) | –
4 | CCC(=O)N[C@H](Cc1ccc(NC(=O)[C@@H](NC(=O)c2ccnn2CC)C2CCCCC2)c(F)c1)C(=O)N1CCC(N(C)C)CC1 [Compound 748] | X2a (compounds were evaluated up to 1 uM and did not inhibit activity by >80%, however they showed some activity at 1 uM (less than 80% and more than 20%)) | –
5 | CCC(=O)N[C@H](Cc1ccc(NC(=O)[C@@H](NC(=O)c2ccnn2CC)C2CCCCC2)c(F)c1)C(=O)NCCN(C)C [Compound 749] | X2a (compounds were evaluated up to 1 uM and did not inhibit activity by >80%, however they showed some activity at 1 uM (less than 80% and more than 20%)) | –
6 | CCC(=O)N[C@H](Cc1ccc(NC(=O)[C@@H](NC(=O)c2ccnn2CC)C2CCCCC2)c(F)c1)C(=O)N1CC2(CN(C)C2)C1 [Compound 750] | X2b (compounds were evaluated up to 1 uM and inhibited activity at 1 uM by less than 20%) | –
7 | CCC(=O)N[C@H](Cc1ccc(NC(=O)[C@@H](NC(=O)c2ccnn2CC)C2CCCCC2)c(F)c1)C(=O)N1CC2(CCN(C)CC2)C1 [Compound 751] | X2b (compounds were evaluated up to 1 uM and inhibited activity at 1 uM by less than 20%) | –
8 | CCC(=O)N[C@H](Cc1ccc(NC(=O)[C@@H](NC(=O)c2ccnn2CC)C2CCCCC2)c(F)c1)C(=O)NCCO [Compound 752] | X2b (compounds were evaluated up to 1 uM and inhibited activity at 1 uM by less than 20%) | –
9 | CCC(=O)N[C@@H](C(=O)N1CCN(C)CC1)[C@@H](C)c1ccc(NC(=O)[C@@H](NC(=O)c2csc3cncnc23)C2CCCCC2)c(F)c1 [Compound 754] | X2b (compounds were evaluated up to 1 uM and inhibited activity at 1 uM by less than 20%) | –
10 | CCC(=O)N[C@H](C(=O)NC1CCOCC1)[C@@H](C)c1ccc(NC(=O)[C@@H](NC(=O)c2ccnn2CC)C2CCCCC2)c(F)c1 [Compound 757] | X2b (compounds were evaluated up to 1 uM and inhibited activity at 1 uM by less than 20%) | –
11 | CCC(=O)N[C@@H](C(=O)N1CCN(C)CC1)[C@@H](C)c1ccc(NC(=O)[C@@H](NC(=O)[C@@H]2CCCN2C)C2CCCCC2)c(F)c1 [Compound 758] | X2b (compounds were evaluated up to 1 uM and inhibited activity at 1 uM by less than 20%) | –
12 | CCC(=O)N[C@H](Cc1ccc(NC(=O)[C@@H](NC(=O)c2ccnn2CC)C2CCCCC2)c(F)c1)C(=O)N1CCCN(C)CC1 [Compound 760] | – | 0.1 to 10 µM
13 | CCC(=O)N[C@H](Cc1ccc(NC(=O)[C@@H](NC(=O)c2cncn2CC)C2CCCCC2)c(F)c1)C(=O)N1CCN(C)CC1 [Compound 761] | – | 0.1 to 10 µM
14 | CCC(=O)N[C@H](Cc1ccc(NC(=O)[C@@H](NC(=O)c2ccnn2CC)C2CCCCC2)c(Cl)c1)C(=O)N1CCN(C)CC1 [Compound 763] | – | 0.1 to 10 µM
15 | CCC(=O)N[C@H](Cc1ccc(NC(=O)[C@@H](NC(=O)c2conc2CNC(C)=O)C2CCCCC2)c(F)c1)C(=O)N1CCN(C)CC1 [Compound 764] | – | 0.1 to 10 µM
16 | CCC(=O)N[C@H](Cc1ccc(NC(=O)[C@@H](NC(=O)c2cc(Cl)nn2C)C2CCCCC2)c(F)c1)C(=O)N1CCN(C)CC1 [Compound 765] | – | 0.1 to 10 µM
17 | CCC(=O)N[C@H](Cc1ccc(NC(=O)[C@@H](NC(=O)c2ccnn2CC)C2CCCCC2)c(C)c1)C(=O)N1CCN(C)CC1 [Compound 766] | – | 0.1 to 10 µM
18 | CCC(=O)N[C@@H](C(=O)N1CCN(C)CC1)[C@@H](C)c1ccc(NC(=O)[C@@H](NC(=O)c2ccc(CNC(=O)COCC(=O)O)s2)C2CCCCC2)c(F)c1 [Compound 767] | – | 0.1 to 10 µM
19 | CCC(=O)N[C@@H](C(=O)O)[C@@H](C)c1ccc(NC(=O)[C@@H](NC(=O)c2ccnn2CC)C2CCCCCC2)c(F)c1 [Compound 768] | – | 0.1 to 10 µM
20 | CCC(=O)N[C@@H](C(=O)N1CCN(C)CC1)[C@@H](C)c1ccc(NC(=O)[C@@H](NC(=O)Cc2ccc(CC(=O)O)cc2)C2CCCCC2)c(F)c1 [Compound 769] | – | 0.1 to 10 µM
21 | CCC(=O)N[C@H](Cc1ccc(NC(=O)[C@@H](NC(=O)c2ccnn2CC)C2CCCCC2)c(F)c1)C(=O)N1CCN(C2COC2)CC1 [Compound 770] | – | 0.1 to 10 µM
22 | CCC(=O)N[C@@H](C(=O)N1CCN(C)CC1)[C@H](C)c1ccc(NC(=O)[C@@H](NC(=O)c2ccnn2CC)C2CCCCC2)cc1 [Compound 771] | X1a (compounds were evaluated up to 10 uM and did not inhibit activity by >80%, however they showed some activity at 10 uM (less than 80% and more than 20%)) | –
23 | CCC(=O)N[C@H](Cc1ccc(NC(=O)[C@@H](NC(=O)c2nccn2CC)C2CCCCC2)c(F)c1)C(=O)N1CCN(C)CC1 [Compound 772] | X1a (compounds were evaluated up to 10 uM and did not inhibit activity by >80%, however they showed some activity at 10 uM (less than 80% and more than 20%)) | –
24 | CCC(=O)N[C@H](Cc1ccc(NC(=O)[C@@H](NC(=O)c2cc(CC(C)C)nn2CC)C2CCCCC2)c(F)c1)C(=O)N1CCN(C)CC1 [Compound 773] | X1b (compounds were evaluated up to 10 uM and inhibited activity at 10 uM by less than 20%) | –
25 | CCC(=O)N[C@H](Cc1ccc(NC(=O)[C@@H](NC(=O)c2c3c(nn2CC)CCC3)C2CCCCC2)c(F)c1)C(=O)N1CCN(C)CC1 [Compound 774] | X1b (compounds were evaluated up to 10 uM and inhibited activity at 10 uM by less than 20%) | –
26 | CCC(=O)N[C@H](Cc1ccc(NC(=O)[C@@H](NC(=O)c2ccnn2CC)c2ccccc2)c(F)c1)C(=O)N1CCN(C)CC1 [Compound 775] | X1b (compounds were evaluated up to 10 uM and inhibited activity at 10 uM by less than 20%) | –
27 | CCC(=O)N[C@H](Cc1ccc(NC(=O)[C@@H](NC(=O)Cc2c[nH]cn2)C2CCCCC2)c(F)c1)C(=O)N1CCN(C)CC1 [Compound 776] | X1b (compounds were evaluated up to 10 uM and inhibited activity at 10 uM by less than 20%) | –
28 | CCC(=O)N[C@H](Cc1ccc(NC(=O)[C@@H](NC(=O)c2c(CO)noc2C)C2CCCCC2)c(F)c1)C(=O)N1CCN(C)CC1 [Compound 777] | X1b (compounds were evaluated up to 10 uM and inhibited activity at 10 uM by less than 20%) | –
29 | CCC(=O)N[C@H](Cc1ccc(NC(=O)[C@@H](NC(=O)Cc2ccc(=O)[nH]c2)C2CCCCC2)c(F)c1)C(=O)N1CCN(C)CC1 [Compound 778] | X1b (compounds were evaluated up to 10 uM and inhibited activity at 10 uM by less than 20%) | –
30 | CCC(=O)N[C@H](Cc1ccc(NC(=O)[C@@H](NC(=O)c2ccc(C(=O)NC)s2)C2CCCCC2)c(F)c1)C(=O)N1CCN(C)CC1 [Compound 779] | X1a (compounds were evaluated up to 10 uM and did not inhibit activity by >80%, however they showed some activity at 10 uM (less than 80% and more than 20%)) | –
